Details: a range is the spread between reports

| SMILES | melting point [°C] |
| --- | --- |
| O=c1[nH]c(=O)c2nccnc2[nH]1 | 348 |
| C[C@H](O)[C@@H](C)O | 33 to 34.5 |
| O=C1Cc2ccccc2C(=O)O1 | 142 to 143 |
| O=[N+]([O-])c1c(F)cc(F)cc1F | 3.5 to 4 |
| C=CCc1ccc(O)c(OC)c1 | -10 to -9 |
| Cc1ccc(O)c(C(C)(C)C)c1 | 51.5 to 52 |
| CCCCCCCCCCCC[N+](C)(C)[O-] | 130 to 132 |
| O=C(Cl)c1ccc(Cl)cc1 | 12 to 16 |
| ClCBr | -88 to -87.9 |
| Cc1cc(C)c(C(=O)O)c(C)c1 | 152 to 154 |
| Nc1ccc([N+](=O)[O-])cc1 | 146 to 150 |
| CCOC(=O)CC#N | -23 to -22 |
| CC(C)OC(C)C | -86.8 to -86 |
| C=C(C)CCCC | -103 |
| CC(C)CC(=O)CC(C)C | -42 to -41.5 |
| CCCCCCCCCCCCCCCCCC(=O)OC | 39.1 to 40 |
| OCc1c(F)c(F)c(F)c(F)c1F | 34 to 37.5 |
| CCC(C(=O)O)C(=O)O | 113 to 114 |
| OCC1c2ccccc2-c2ccccc21 | 104 to 106 |
| Cc1ccc(Cl)cc1 | 7 to 8 |
| CCc1cccc(CC)c1 | -84 to -83.9 |
| NC(=O)c1c(F)cccc1F | 146 to 147 |
| O=Cc1ccc(C(=O)O)cc1 | 245 to 247 |
| C(#Cc1ccccc1)c1ccccc1 | 60 to 63 |
| CCCC(C)=O | -78 to -76.9 |

| SMILES | melting point [°C] |
| --- | --- |
| NCCCCCCO | 56 to 57 |
| CCCCOCCO | -79 to -74.8 |
| CCC1CCCCC1 | -111 |
| CC(=O)CCC=C(C)C | -67.1 to -67 |
| CCCNC(=O)NS(=O)(=O)c1ccc(Cl)cc1 | 128 |
| COc1cc(OC)c(OC)cc1C=O | 113 to 114 |
| Nc1cccc2ccc(O)cc12 | 206 to 208 |
| O=C(O)C(O)c1ccc(Br)cc1 (stereo not given) | 117 to 118 |
| CN1CCCC1=O | -24 to -23 |
| Cc1cc(O)c(C(C)C)cc1C1(c2cc(C(C)C)c(O)cc2C)OC(=O)c2ccccc21 | 250 to 253 |
| N#CCCCl | -51 to -50 |
| Brc1ccccc1-c1ccccc1 | 1 to 2 |
| CCCCCCCCCCCCCCC(=O)O | 52 to 53 |
| CN(C)c1ccc(/N=N/c2ccccc2C(=O)O)cc1 | 180 to 183 |
| O=C(O)c1ccccc1N=Nc1ccc(O)cc1 | 205 to 206 |
| O=C(O)CCCCCBr | 34 to 35 |
| CCC(C)C(=O)OC1CC(C)C=C2C=CC(C)C(CCC3CC(O)CC(=O)O3)C21 (stereo not given) | 174 to 175 |
| O=C1CCC1 | -52 to -50.9 |
| CC(CCC(=O)O)(c1ccc(O)cc1)c1ccc(O)cc1 | 172 to 173 |
| ClCCOCCCl | -51.9 to -47 |
| Nc1cccc(O)c1 | 123 to 125 |
| CCC1CC1 | -149 |
| O=C(Oc1ccccc1)c1ccccc1O | 42 to 43 |
| ClC(Cl)=C(Cl)Cl | -22.3 to -22 |
| Clc1ccc(C(c2ccc(Cl)cc2)C(Cl)(Cl)Cl)cc1 | 108 to 110 |

| SMILES | melting point [°C] |
| --- | --- |
| Cc1ccc(C(C)C)c(O)c1 | 49 to 51.5 |
| NC(=O)C(Cl)Cl | 99 to 99.4 |
| CCN(CC)C(=S)SSC(=S)N(CC)CC | 70 to 71.5 |
| O=Cc1ccccc1Cl | 9 to 12.4 |
| O=[N+]([O-])c1cc(Cl)c(Cl)c(Cl)c1 | 70 to 72.5 |
| O=C(O)c1ccccn1 | 136 to 137 |
| CCC1(C(C)C)C(=O)NC(=O)NC1=O | 198 to 203 |
| CN(C)C(=O)Nc1ccc(Cl)c(Cl)c1 | 158 to 159 |
| O=C(O)CCCCBr | 39 to 40 |
| Nc1c(Br)cc(Br)cc1Br | 120 to 122 |
| c1ccc(-c2ccc(-c3ccccc3)o2)cc1 | 88 to 91 |
| Cc1ccc(Cl)cc1Cl | -13.5 to -13 |
| Oc1c(F)c(F)c(F)c(F)c1F | 32.8 to 35 |
| Cc1cccc(N)c1 | -31.3 to -30 |
| Cc1cccc(C(=O)O)c1O | 165 to 166 |
| Oc1cc(Cl)ccc1Cl | 57 to 59 |
| O=[N+]([O-])c1cc(Cl)ccc1O | 87 to 89 |
| C1CCCCC1 | 6.45 to 7 |
| O=[N+]([O-])c1ccccc1CCl | 47 to 51 |
| C=CCCCCCCCCCCCCC | -4 to -2.8 |
| O=c1cc(-c2ccccc2)oc2c1ccc1ccccc12 | 153 to 158 |
| O=C(O)CCc1ccc(O)cc1 | 129 to 131 |
| O=[N+]([O-])c1cc(F)ccc1O | 73 to 75 |
| CC(C)C(C)C(C)C | -110 to -109 |
| COc1ccc(C(C)=O)cc1OC | 49 to 51 |

| SMILES | melting point [°C] |
| --- | --- |
| CC12CCC(C(=O)C1=O)C2(C)C (stereo not given) | 199 to 200 |
| O=C(O)COc1ccccc1Cl | 148 to 150 |
| N#CCc1ccccc1Cl | 23 to 24 |
| C=CCNCC=C | -88.4 to -88 |
| c1ccc(NC2CCCCC2)cc1 | 15 to 16 |
| CCI | -111 to -108 |
| O=C(O)c1ccc(C(=O)c2ccccc2)cc1 | 198 to 199 |
| O=C(O)c1cccc(C(=O)O)c1 | 342 to 347 |
| CCOc1ccc(O)cc1 | 66 to 66.5 |
| NC(=O)c1ccc([N+](=O)[O-])cc1 | 200 to 202 |
| c1ccc2c(c1)cc1ccc3cccc4ccc2c1c34 | 176 to 179 |
| CCCCCCCC#N | -46 to -45 |
| Clc1ccc(Br)cc1 | 65 to 68 |
| N#Cc1cccc(C(=O)O)c1 | 219 to 223 |
| COc1ccc(C)cc1OC | 24 to 27 |
| CC(C)(C)c1ccc(N)cc1 | 15 to 17 |
| Clc1ccc2cc[nH]c2c1 | 89 to 90 |
| CCCSCCC | -103 to -102 |
| CC=CC(C)CC (stereo not given) | -126 |
| CCOS(=O)(=O)OCC | -25 to -24 |
| O=C1C(=O)c2ccccc2-c2ccccc21 | 206 to 210 |
| NC(=O)c1ccncc1 | 156 to 157 |
| O=C(Cl)C(c1ccccc1)c1ccccc1 | 53 to 56.5 |
| Cc1ccccc1Br | -28 to -27 |
| CCCCCCCCC#N | -34.2 to -34 |

| SMILES | melting point [°C] |
| --- | --- |
| Nc1ccc2ccc3cccc4ccc1c2c34 | 116 to 118 |
| CCC1CCCC1 | -138 |
| CCCCOC(=O)CCC | -92 to -91.5 |
| NNC=O | 55 to 57 |
| C=C(C)OC(C)=O | -93 to -92.9 |
| Clc1ccc(C(c2ccc(Cl)cc2)C(Cl)Cl)cc1 | 109 to 110 |
| Nc1ccccc1C=O | 38 to 39 |
| CC12CCC(=O)C=C1CCC1C2CCC2(C)C(C(=O)CO)CCC12 (stereo not given) | 142 |
| Brc1cscc1Br | 4.5 to 5 |
| COc1ccc(NC(C)=O)cc1 | 127 to 131 |
| O=C(c1ccccc1)c1ccc(Cl)cc1 | 76 to 77.5 |
| COC(=O)c1cccc(C(=O)OC)c1 | 67.5 to 69 |
| BrCCBr | 9.9 to 10 |
| Clc1cc(Cl)c(Cl)c(Cl)c1Cl | 85 to 86 |
| C=COCC | -116 to -115 |
| CCC(C)C | -160 |
| c1ccc(OCCOc2ccccc2)cc1 | 95 to 98 |
| COC(=O)c1ccc(Cl)cc1 | 43 to 44 |
| Cc1nnc(C)s1 | 63 to 65 |
| CC(C)c1ccc(O)cc1 | 60 to 62.3 |
| C/C=C/c1ccc(OC)cc1 | 21 to 23 |
| C#CC(C)(C)C | -78.2 to -78 |
| COC(=O)c1ccc(C(=O)OC)cc1 | 141 to 142 |
| N#CCc1ccc(O)cc1 | 69 to 71 |
| CCCCCCCCCCCCO | 24 to 26 |

| SMILES | melting point [°C] |
| --- | --- |
| NS(=O)(=O)c1ccc([N+](=O)[O-])cc1 | 179 to 180 |
| CCCCl | -123 to -122 |
| CN1CCC(=C2c3ccccc3C=Cc3ccccc32)CC1 | 112 to 113 |
| CC(=O)c1cccnc1 | 12 to 13.5 |
| CCOc1ccccc1OCC | 43 to 44 |
| COC(=O)CCC(=O)OC | 19 to 19.5 |
| CI | -67 to -64 |
| CCCCCCCCCCCCCCO | 39 to 40 |
| CCCCCCCCC(=O)CCCCCCCC | 52 to 53 |
| COCc1ccccc1 | -53 to -52 |
| O=C(O)CC(O)C(=O)O (stereo not given) | 130 to 132 |
| Cc1cc(N)c2ccccc2n1 | 164 to 169 |
| CCCCNC(=O)NS(=O)(=O)c1ccc(C)cc1 | 128 to 129 |
| CCCCC(C)(C)C | -121 |
| CC(=O)c1ccc(C(F)(F)F)cc1 | 31 to 32 |
| NC(=O)c1ccc(C(F)(F)F)cc1 | 184 to 185 |
| CC(=O)Oc1ccc(OC(C)=O)cc1 | 121 to 125 |
| O=P(O)(O)CP(=O)(O)O | 200 to 203 |
| Cc1ccc(C)c(O)c1 | 74 to 76 |
| O=C(Oc1cccc(OC(=O)c2ccccc2)c1)c1ccccc1 | 116 to 118 |
| [O-][S+](Cc1ccccc1)Cc1ccccc1 | 133 to 134 |
| Oc1ccc2ccccc2c1-c1c(O)ccc2ccccc12 | 216 to 217 |
| COCCOCCOC | -68 to -64 |
| O=C(Oc1ccccc1)c1ccccc1 | 67 to 71 |
| O=C(O)C(F)(F)Cl | 22 to 25 |

| SMILES | melting point [°C] |
| --- | --- |
| ClCc1ccccc1 | -45 to -43 |
| Clc1ccc(Cl)nc1 | 60.5 to 61 |
| Nc1ccc2ncsc2c1 | 87 to 88 |
| N#Cc1cc([N+](=O)[O-])c(Cl)c([N+](=O)[O-])c1 | 141 |
| FC(F)(F)CC(F)(F)F | -98 to -94.2 |
| O=S1(=O)CCCO1 | 31.5 to 32 |
| CCCCCCCCCCC | -26 to -25.6 |
| O=C1CNC(=O)N1 | 220 to 222 |
| OCc1ccc(Cl)cc1Cl | 59 to 59.5 |
| O=[N+]([O-])c1cccc2cccc([N+](=O)[O-])c12 | 172 to 173 |
| C=CC=O | -87.7 to -87 |
| C=Cc1cccc([N+](=O)[O-])c1 | -10 to -5 |
| C=CCCCCCCCCCCCCCCCCCC | 28.5 to 29 |
| COc1ccc(CCCC(=O)O)cc1 | 57.5 to 59 |
| COc1ccc(Cc2nccc3cc(OC)c(OC)cc23)cc1OC | 147 to 148 |
| Cc1cccc(Cl)c1 | -48 to -47.8 |
| O=C(O)COc1ccc(Cl)cc1 | 159 to 164 |
| CCC(=O)c1ccc(C)cc1 | 7 to 7.2 |
| CCCCCCCCCCCCCl | -9.3 to -9 |
| CC(C)=CC(C)(C)C | -106 |
